The values below come from US20090291938A1 (TAKEDA PHARMACEUTICAL COMPANY LIMITED, priority 2007, published 2009).

For the first assay, the system named is HT29 human colorectal adenocarcinoma cell line. The assay is described as follows: cell proliferation assay (Cell Titer-Glo luminescent cell viability assay). The class given is cell-based. As to conditions: HT-29, 72 h, read-out: pIC50 (converted). Here is the method: The cell culture and proliferation assay may be carried out as follows: the HT29 human colorectal adenocarcinoma cell line (ATCC, USA) was maintained in Dulbecco's Modified Eagle's Medium (Invitrogen, USA) supplemented with 10% fetal bovine serum (JRH, USA). The cell proliferation assay was carried out with the Cell Titer-Glo luminescent cell viability assay (Promega, USA) according to the manufacture's instruction after the 72 hr treatment of the cells in the presence of the compounds. The cell viability was shown as a percentage of DMSO treated cells.
Turning to `COc1cc(C(=O)NC2CCN(C)CC2)ccc1Nc1ncc2c(n1)N(C1CCCCC1)CC(C)(C)C(=O)N2C` [Compound 109, 4-(9-cyclohexyl-5,7,7-trimethyl-6-oxo-6,7,8,9-tetrahydro-5H-pyrimido[4,5-b][1,4]diazepin-2-ylamino)-3-methoxy-N-(1-methylpiperidin-4-yl)benzamide], the IC50 was 1 to 2.51 nM.
The same measure, in the same setting: the same measure for `CC(C)Oc1cc(C(=O)NC2CCN(C)CC2)ccc1Nc1ncc2c(n1)N(C1CCCC1)CC(C)(C)C(=O)N2C` [Compound 122, 4-(9-cyclopentyl-5,7,7-trimethyl-6-oxo-6,7,8,9-tetrahydro-5H-pyrimido[4,5-b][1,4]diazepin-2-ylamino)-3-isopropoxy-N-(1-methylpiperidin-4-yl)benzamide]: over 10 nM.

Still in this assay, the particulars now being: HT-29, cell proliferative assay, HT29 cells, 72 hr treatment, values given as ranges, read-out: pIC50 (converted).
As to `COc1cc(C(=O)NC2CCN(S(C)(=O)=O)CC2)ccc1Nc1ncc2c(n1)N(C1CCCC1)CCC(=O)N2C` [Compound 37, 4-(9-cyclopentyl-5-methyl-6-oxo-6,7,8,9-tetrahydro-5H-pyrimido[4,5-b][1,4]diazepin-2-ylamino)-3-methoxy N-(1-(methylsulfonyl)piperidin-4-yl)benzamide], the IC50 is 3.16 to 10 nM.
Same read-out and setting: under `COc1cc(C(=O)NCCCN(C)C)ccc1Nc1ncc2c(n1)N(C1CCCC1)CC(C)(C)C(=O)N2C` [Compound 89, 4-(9-cyclopentyl-5,7,7-trimethyl-6-oxo-6,7,8,9-tetrahydro-5H-pyrimido[4,5-b][1,4]diazepin-2-ylamino)-N-(3-(dimethylamino)propyl)-3-methoxybenzamide] stands 3.16 to 10 nM.
Regarding `C=CC[C@H]1CN(C2CCCC2)c2nc(Nc3ccc(C(=O)NC4CCNCC4)cc3OC)ncc2N(C)C1=O` [Compound 207, (S)-4-(7-allyl-9-cyclopentyl-5-methyl-6-oxo-6,7,8,9-tetrahydro-5H-pyrimido[4,5-b][1,4]diazepin-2-ylamino)-3-methoxy-N-(piperidin-4-yl)benzamide], the IC50 was 3.16 to 10 nM.
On the same count and under the same terms, the same measure for `CCN1CCC(NC(=O)c2ccc(Nc3ncc4c(n3)N(C3CCCCC3)CC(C)(C)C(=O)N4C)c(OC)c2)CC1` [Compound 113, 4-(9-cyclohexyl-5,7,7-trimethyl-6-oxo-6,7,8,9-tetrahydro-5H-pyrimido[4,5-b][1,4]diazepin-2-ylamino)-N-(1-ethylpiperidin-4-yl)-3-methoxybenzamide]: under 1 nM.
Still for that read-out and setting: under `COc1cc(C(=O)N[C@H]2CCCNC2)ccc1Nc1ncc2c(n1)N(C1CCCC1)CC1(CCC1)C(=O)N2C` [Compound 182, (S)-4-(9′-cyclopentyl-5′-methyl-6′-oxo-5′,6′,8′,9′-tetrahydrospiro[cyclobutane-1,7′-pyrimido[4,5-b][1,4]diazepine]-2′-ylamino)-3-methoxy-N-(piperidin-3-yl)benzamide] stands 1 to 2.51 nM; under `COc1cc(C(=O)N[C@@H]2CCCNC2)ccc1Nc1ncc2c(n1)N(C1CCCCC1)CC(C)(C)C(=O)N2C` [Compound 110, (R)-4-(9-cyclohexyl-5,7,7-trimethyl-6-oxo-6,7,8,9-tetrahydro-5H-pyrimido[4,5-b][1,4]diazepin-2-ylamino)-3-methoxy-N-(piperidin-3-yl)benzamide], 1 to 2.51 nM.
Same read-out and setting: under `COc1cc(C(=O)NC2CCN(C)CC2)ccc1Nc1ncc2c(n1)N(C1CCCCC1)CC(C1CC1)C(=O)N2C` (stereo not shown) [Compound 156, 4-(9-cyclohexyl-7-cyclopropyl-5-methyl-6-oxo-6,7,8,9-tetrahydro-5H-pyrimido[4,5-b][1,4]diazepin-2-ylamino)-3-methoxy-N-(1-methylpiperidin-4-yl)benzamide] stands over 10 nM; under `C=CCC1CN(C2CCCCC2)c2nc(Nc3ccc(C(=O)N[C@@H]4CCCNC4)cc3OC)ncc2N(C)C1=O` (stereo partly drawn) [Compound 191, 4-(7-allyl-9-cyclohexyl-5-methyl-6-oxo-6,7,8,9-tetrahydro-5H-pyrimido[4,5-b][1,4]diazepin-2-ylamino)-3-methoxy-N-((R)-piperidin-3-yl)benzamide], 3.16 to 10 nM; under `COc1cc(C(=O)NN2CCN(C3CCCC3)CC2)ccc1Nc1ncc2c(n1)N(C1CCCCC1)CC(C)(C)C(=O)N2C` [Compound 117, 4-(9-cyclohexyl-5,7,7-trimethyl-6-oxo-6,7,8,9-tetrahydro-5H-pyrimido[4,5-b][1,4]diazepin-2-ylamino)-N-(4-cyclopentylpiperazin-1-yl)-3-methoxybenzamide], 3.16 to 10 nM.
As for `COc1cc(C(=O)NC2CCN(S(C)(=O)=O)CC2)ccc1Nc1ncc2c(n1)N(C1CCCC1)CC(C)(C)C(=O)N2C` [Compound 91, 4-(9-cyclopentyl-5,7,7-trimethyl-6-oxo-6,7,8,9-tetrahydro-5H-pyrimido[4,5-b][1,4]diazepin-2-ylamino)-3-methoxy-N-(1-(methylsulfonyl)piperidin-4-yl)benzamide], the IC50 is 1 to 2.51 nM.
In the case of `COc1cc(C(=O)NC[C@@H]2CCCNC2)ccc1Nc1ncc2c(n1)N(C1CCCC1)CCC(=O)N2C` [Compound 63, (R)-4-(9-cyclopentyl-5-methyl-6-oxo-6,7,8,9-tetrahydro-5H-pyrimido[4,5-b][1,4]diazepin-2-ylamino)-3-methoxy-N-(piperidin-3-ylmethyl)benzamide], the IC50 was over 10 nM.
In the case of `COc1cc(C(=O)NC2CCN(C(C)=O)CC2)ccc1Nc1ncc2c(n1)N(C1CCCC1)CC(C)(C)C(=O)N2C` [Compound 90, N-(1-acetylpiperidin-4-yl)-4-(9-cyclopentyl-5,7,7-trimethyl-6-oxo-6,7,8,9-tetrahydro-5H-pyrimido[4,5-b][1,4]diazepin-2-ylamino)-3-methoxybenzamide], the IC50 is 1 to 2.51 nM.
Still for that read-out and setting: under `CCN1CCC(NC(=O)c2ccc(Nc3ncc4c(n3)N(C3CCCCC3)CC3(CC3)C(=O)N4C)c(OC)c2)CC1` [Compound 176, 4-(9′-cyclohexyl-5′-methyl-6′-oxo-5′,6′,8′,9′-tetrahydrospiro[cyclopropane-1,7′-pyrimido[4,5-b][1,4]diazepine]-2′-ylamino)-N-(1-ethylpiperidin-4-yl)-3-methoxybenzamide] stands over 10 nM; under `CCN1CCC(NC(=O)c2ccc(Nc3ncc4c(n3)N(C3CCCC3)CC(C)(C)C(=O)N4C)c(OC)c2)CC1` [Compound 87, 4-(9-cyclopentyl-5,7,7-trimethyl-6-oxo-6,7,8,9-tetrahydro-5H-pyrimido[4,5-b][1,4]diazepin-2-ylamino)-N-(1-ethylpiperidin-4-yl)-3-methoxybenzamide], 1 to 2.51 nM; under `C=CC[C@H]1CN(C2CCCC2)c2nc(Nc3ccc(C(=O)NC4CN(C)C4)cc3OC)ncc2N(C)C1=O` [Compound 196, (S)-4-(7-allyl-9-cyclopentyl-5-methyl-6-oxo-6,7,8,9-tetrahydro-5H-pyrimido[4,5-b][1,4]diazepin-2-ylamino)-3-methoxy-N-(1-methylazetidin-3-yl)benzamide], under 1 nM.
On the same count and under the same terms, under `COc1cc(C(=O)N[C@@H]2CCCNC2)ccc1Nc1ncc2c(n1)N(C1CCCC1)CC(C)(C)C(=O)N2C` [Compound 100, (R)-4-(9-cyclopentyl-5,7,7-trimethyl-6-oxo-6,7,8,9-tetrahydro-5H-pyrimido[4,5-b][1,4]diazepin-2-ylamino)-3-methoxy-N-(piperidin-3-yl)benzamide] stands 3.16 to 10 nM; under `C=CC[C@H]1CN(C2CCCC2)c2nc(Nc3ccc(C(=O)N[C@@H]4CCNC4)cc3OC)ncc2N(C)C1=O` [Compound 202, 4-((S)-7-allyl-9-cyclopentyl-5-methyl-6-oxo-6,7,8,9-tetrahydro-5H-pyrimido[4,5-b][1,4]diazepin-2-ylamino)-3-methoxy-N-((R)-pyrrolidin-3-yl)benzamide], 1 to 2.51 nM.
On to `COc1cc(C(=O)NC2CCN(C)CC2)ccc1Nc1ncc2c(n1)N(C1CCCC1C)CC1(CC1)C(=O)N2C` (stereo not shown) [Compound 177, 3-methoxy-4-(5′-methyl-9′-(2-methylcyclopentyl)-6′-oxo-5′,6′,8′,9′-tetrahydrospiro[cyclopropane-1,7′-pyrimido[4,5-b][1,4]diazepine]-2′-ylamino)-N-(1-methylpiperidin-4-yl)benzamide], for which the IC50 was under 1 nM.
As to `C=CC[C@H]1CN(C2CCCC2)c2nc(Nc3ccc(C(=O)N[C@@H]4CCN(C)C4)cc3OC)ncc2N(C)C1=O` [Compound 204, 4-((S)-7-allyl-9-cyclopentyl-5-methyl-6-oxo-6,7,8,9-tetrahydro-5H-pyrimido[4,5-b][1,4]diazepin-2-ylamino)-3-methoxy-N-((R)-1-methylpyrrolidin-3-yl)benzamide], the IC50 was 1 to 2.51 nM.
Regarding `CC[C@@]1(C)CN(C2CCCC2)c2nc(Nc3ccc(C(=O)N[C@@H]4CCCNC4)cc3OC)ncc2N(C)C1=O` [Compound 134, 4-((S)-9-cyclopentyl-7-ethyl-5,7-dimethyl-6-oxo-6,7,8,9-tetrahydro-5H-pyrimido[4,5-b][1,4]diazepin-2-ylamino)-3-methoxy-N-((R)-piperidin-3-yl)benzamide], the IC50 was 3.16 to 10 nM.
Regarding `COc1cc(C(=O)NC2CN(C)C2)ccc1Nc1ncc2c(n1)N(C1CCCC1)CC1(CC1)C(=O)N2C` [Compound 163, 4-(9′-cyclopentyl-5′-methyl-6′-oxo-5′,6′,8′,9′-tetrahydrospiro[cyclopropane-1,7′-pyrimido[4,5-b][1,4]diazepine]-2′-ylamino)-3-methoxy-N-(1-methylazetidin-3-yl)benzamide], the IC50 was 1 to 2.51 nM.
The same measure, in the same setting: under `COc1cc(C(=O)NC2CCOCC2)ccc1Nc1ncc2c(n1)N(C1CCCC1)CC(C)(C)C(=O)N2C` [Compound 94, 4-(9-cyclopentyl-5,7,7-trimethyl-6-oxo-6,7,8,9-tetrahydro-5H-pyrimido[4,5-b][1,4]diazepin-2-ylamino)-3-methoxy-N-(tetrahydro-2H-pyran-4-yl)benzamide] stands 1 to 2.51 nM; under `CC[C@H]1CN(C2CCCC2)c2nc(Nc3ccc(C(=O)NC4CCN(C)CC4)cc3OC)ncc2N(C)C1=O` [Compound 36, (S)-4-(9-Cyclopentyl-7-ethyl-5-methyl-6-oxo-6,7,8,9-tetrahydro-5H-pyrimido[4,5-b][1,4]diazepin-2-ylamino)-3-methoxy-N-(1-methyl-piperidin-4-yl)-benzamide], 3.16 to 10 nM.
